From paper PMC12282101, “Heat shock protein 90 chaperone activity is required for hepatitis A virus replication” (Journal of Virology, 2025)
Entries after “also recorded” stand apart in the source; their conditions may differ. Where two headings read alike, the source gives them in different places.

Legend:
18f-NLuc reporter virus [1] = assay: microbe, parasite or virus in culture; assay type: cell-based, Hepatitis A virus; details: Hepatovirus A, Huh-7.5.1, 72 h, read-out: Normalized HAV production
HAV [2] = assay: microbe, parasite or virus in culture; assay type: cell-based, Hepatitis A virus; details: Hepatovirus A; 30 nM, Huh-7.5.1 cells; read-out: Inhibition of infectious virus released
HAV [3] = assay: microbe, parasite or virus in culture; assay type: cell-based, Hepatitis A virus; details: Hepatovirus A, read-out: IC50, HAV replication by RT-qPCR
18f-NLuc reporter virus [4] = assay: microbe, parasite or virus in culture; assay type: cell-based, Hepatitis A virus; details: Hepatovirus A, HEK-293T, read-out: IC50, HAV replication by NLuc
Experimental: Cells were lysed in 1× passive lysis buffer (Promega, #E1941) for 15 min at room temperature, then lysates were transferred to opaque white 96-well plates (Corning, #3912). NLuc activity was quantified using the NLuc GLOW Assay kit (Nanolight Technology, #325), and FLuc assays were carried out with the Luciferase Assay System (Promega, E1500). Luminescence was measured using a Biotek Synergy II multi-mode plate reader (BioTek Instruments).

18f-NLuc reporter virus [5] = assay: microbe, parasite or virus in culture; assay type: cell-based, Hepatitis A virus; details: Hepatovirus A, FRhK-4, 48 h, read-out: IC50, HAV replication by NLuc
PV1-NLuc [6] = assay: microbe, parasite or virus in culture; assay type: cell-based, type 1 poliovirus; details: Enterovirus C, Huh7.5, 16 h, read-out: IC50, PV1-NLuc replication
PV1-NLuc [7] = assay: microbe, parasite or virus in culture; assay type: cell-based, type 1 poliovirus; details: Enterovirus C, FRhK-4, 16 h, read-out: IC50, PV1-NLuc replication
18f-NLuc reporter virus [8] = assay type: cell-based, Hepatitis A virus
HAV-FLuc = assay: microbe, parasite or virus in culture; assay type: cell-based, Hepatitis A virus
RV-B14-FLuc = assay type: cell-based, rhinovirus B14; details: up to 1 µM, Huh-7.5 cells
PeV-A1-NLuc = assay type: cell-based, human parechovirus A1; details: A549 cells
HAV IRES = assay type: cell-based, Hepatitis A virus; details: 100 nM
3C^pro [9] = assay type: cell-based, Hepatitis A virus
3C^pro [10] = assay type: cell-based, Hepatitis A virus; remark: listed apart in the source
18f virus = assay type: cell-based, Hepatitis A virus; details: cells infected 72 h, then treated 24 h
ACC1 = assay: Immunoblot of ACC1 in Huh-7.5 cells; assay type: cell-based, human; details: 200 nM, 24 hours
HAV [11] = details: FRhK4 fetal rhesus kidney cells; ref 16 Aragonès et al.; read-out: IC50, HAV replication; cited from earlier work
poliovirus = details: HeLa S3 cells; read-out: IC50, poliovirus replication; cited from earlier work
in vitro [12] = details: human, CC50, Huh-7.5 cells, cellular ATP assay
in vitro [13] = details: rhesus monkey, CC50, FRhK4 cells
HM175/18f virus = assay: microbe, parasite or virus in culture; details: Hepatovirus A
18f-NLuc reporter virus [14] = assay: microbe, parasite or virus in culture; details: Hepatovirus A, Huh7.5, 48 h, read-out: IC50, HAV replication by NLuc
Huh-7.5.1 cells = assay: Cell viability in the chemical screen (Cell TiterGlo); details: 10 µM compound, 72 h

COC1=C2C[C@@H](C)C[C@H](OC)[C@H](O)[C@@H](C)/C=C(\C)[C@H](OC(N)=O)[C@@H](OC)/C=C\C=C(/C)C(=O)NC(=CC1=O)C2=O [Geldanamycin]
activity at 10 µM (18f-NLuc reporter virus [1]): 0.0718%
inhibition at 0.03 µM (HAV [2]): > 50%
IC50 (HAV [3]): 4.3 nM
IC50 (18f-NLuc reporter virus [4]): 4.7 nM
IC50 (18f-NLuc reporter virus [5]): 804 nM
IC50 (PV1-NLuc [6]): 183 nM
IC50 (PV1-NLuc [7]): > 10000 nM
NLuc expression at 48 hours post-infection (18f-NLuc reporter virus [8]): neither case did either HSP90 inhibitor reduce NLuc expression
Replication of subgenomic HAV RNA replicon (in words) (HAV-FLuc): potently inhibited
IC50 (HAV-FLuc; Hepatovirus A, Huh7.5, 24 h, read-out: IC50, HAV-FLuc replicon): 29.1 nM
Luciferase expression from subgenomic rhinovirus B14 replicon (in words) (RV-B14-FLuc): does not inhibit
Luciferase expression from subgenomic rhinovirus B14 replicon (in words) (RV-B14-FLuc; listed as geldanamycin): fails to inhibit
Replication of subgenomic human parechovirus A1 replicon (in words) (PeV-A1-NLuc): minimally inhibits; also recorded: resistant
GFP synthesis from circRNA HAV IRES reporter (HAV IRES): had no effect
GFP synthesis from circRNA HAV IRES reporter (HAV IRES; listed as geldanamycin): neither geldanamycin nor 17-AAG inhibited
Inhibition of 3ABCD processing (3C^pro [9]; 0.1 µM): no inhibition
Amount of 3ABC product from HA-3ABCD (3C^pro [9]; 1 µM): modestly reduced
Cleavage of GFP-MAVS by 3ABC (3C^pro [10]): no impact
VP1 and 3ABC proteins in infected cell lysates (18f virus): concentration-related decreases
Abundance of ACC1 (ACC1): did not reduce
IC50 (HAV [11]): 5370 nM
IC50 (poliovirus): 110 nM
CC50 (in vitro [12]): 5100 nM
CC50 (in vitro [13]): > 10000 nM
CC50 (in vitro [13]; cellular ATP assay): 59000 nM
IC50 (HM175/18f virus; Huh7.5, in Homo sapiens, read-out: 50% inhibitory concentration, HAV replication): 8.7 to 11.8 nM
IC50 (HM175/18f virus; Huh-7.5.1, read-out: IC50, HAV replication by RT-qPCR): 11.8 nM
IC50 (18f-NLuc reporter virus [14]): 8.7 nM
Viability Percent DMSO (Huh-7.5.1 cells): 61 Percent DMSO
